From US20260042731A1, “(2,4-DICHLOROPHENOXY)ACETIC ACID ANALOGS” (CORTEVA AGRISCIENCE LLC, priority 2022, published 2026) come the findings set out here.

Data set [1] is described as follows: Volatility of compounds measured by thermogravimetric analysis (TGA). The format is physicochemical.
Data set [2] has as its system weeds ABUTH, AMATA, AMBEL, CHEAL, ERICA. Nature of the data set: Postemergence herbicide evaluation, overall average % weed control (ABUTH, AMATA, AMBEL, CHEAL, ERICA). The format is in vivo. As to conditions: post-emergence, read-out: Overall Ave % Weed Control.
Data set [3] relates to Abutilon theophrasti (ABUTH), velvetleaf. Nature of the data set: Postemergence herbicide evaluation, growth of Abutilon theophrasti (ABUTH). The format is in vivo. As to conditions: Abutilon theophrasti, post-emergence, read-out: AVE. ABUTH.
Data set [4] concerns Amaranthus rudis (AMATA), tall water hemp. Nature of the data set: Postemergence herbicide evaluation, growth of Amaranthus rudis (AMATA). The format is in vivo. As to conditions: Amaranthus tuberculatus, post-emergence, read-out: Ave. AMATA.
The test system of data set [5] is glyphosate resistant Conyza canadensis (L.) (ERICA), horseweed. Nature of the data set: Postemergence herbicide evaluation, growth of Conyza canadensis (ERICA). The format is in vivo. The conditions noted are these: Erigeron canadensis, post-emergence, read-out: Ave. ERICA.
For data set [6], the system named is Chenopodium album (CHEAL), common lambsquarters. Kind of data set: Postemergence herbicide evaluation, growth of Chenopodium album (CHEAL). The format is in vivo. The conditions noted are these: Chenopodium album, post-emergence, read-out: Ave. CHEAL.
Data set [7] relates to weeds (ABUTH, AMATA, AMBEL, CHEAL, ERICA). Nature of the data set: Postemergence herbicide evaluation, overall average % weed control across ABUTH, AMATA, AMBEL, CHEAL, ERICA. The format is in vivo. The conditions noted are these: post-emergence, average over the five weeds, read-out: Overall Ave % Weed Control; for pest or weed control at 280 g/ha: 280 g ae/ha; for pest or weed control at 560 g/ha: 560 g ae/ha.

Data set [8] has as its system Ambrosia artemisiifolia (AMBEL), common ragweed. Kind of data set: Postemergence herbicide evaluation, growth of Ambrosia artemisiifolia (AMBEL). The format is in vivo. The conditions noted are these: Ambrosia artemisiifolia, post-emergence, read-out: AVE. AMBEL.

Where two headings read alike, the source gives them in different places.

For `O=C(COc1ccc(Cl)cc1Cl)OCCOCCOC(=O)COc1ccc(Cl)cc1Cl` [Compound B2, Oxybis(ethane-2,1-diyl) bis(2-(2,4-dichlorophenoxy)acetate)], the “TGA Data (rate of weight loss, volatility)” value in data set [1] was 0.04 µg/min. Further, the figures for the pest or weed control at 280 g/ha in data set [2] (168 h) and in data set [2] (336 h) were 73% and 83%, respectively. The results for the pest or weed control at 560 g/ha in data set [2] (168 h), in data set [2] (336 h) and in data set [2] (504 h) were 75%, 89% and 94%, respectively.

`O=C(COc1ccc(Cl)cc1Cl)OCOC(=O)c1ccccc1` [Compound E7, (2-(2,4-Dichlorophenoxy)acetoxy)methyl benzoate]: the pest or weed control at 280 g/ha came out at 80% in data set [3] (168 h); 84% in data set [3] (336 h); 90% in data set [3] (504 h); 78% in data set [4] (168 h); 95% in data set [4] (336 h); 93% in data set [4] (504 h). In addition, the pest or weed control at 280 g/ha came out at 65% in data set [5] (168 h); 83% in data set [5] (336 h); 93% in data set [5] (504 h); 68% in data set [6] (168 h); 73% in data set [6] (336 h); 70% in data set [6] (504 h). Besides, the pest or weed control at 280 g/ha in data set [7] (168 h, 7 DAA) amounted to 71%; in data set [7] (336 h, 14 DAA), 85%; in data set [7] (504 h, 21 DAA), 88%; in data set [8] (168 h), 63%; in data set [8] (336 h), 93%; in data set [8] (504 h), 96%. In addition, the pest or weed control at 560 g/ha in data set [3] (168 h) is 85%; in data set [3] (336 h), 89%; in data set [3] (504 h), 92%; in data set [4] (168 h) it was 80%; in data set [4] (336 h), 85%; in data set [4] (504 h), 89%. For the same compound, the pest or weed control at 560 g/ha in data set [5] (168 h) amounted to 70%; in data set [5] (336 h), 88%; in data set [5] (504 h) it was 95%; in data set [6] (168 h) it was 75%; in data set [6] (336 h) it was 93%; in data set [6] (504 h), 70%. Further, the pest or weed control at 560 g/ha was 78% in data set [7] (168 h, 7 DAA); 90% in data set [7] (336 h, 14 DAA); 89% in data set [7] (504 h, 21 DAA); 78% in data set [8] (168 h); 97% in data set [8] (336 h); 100% in data set [8] (504 h). Besides, the “TGA Data (rate of weight loss, volatility)” value in data set [1] was found to be 1.5 µg/min.
